Biological target: phosphorylated active hERK2 enzyme (Homo sapiens (Human), UniProt P28482)
Assay: Active Human ERK2 (hERK2) Activity Assay (IMAP-FP)
Type: biochemical
Conditions: 0.5 nM hERK2, 30 μM ATP, 60 minutes reaction; read-out: ERK 2 Human average IC50
Protocol: Active Human ERK2 (hERK2) Activity Assay:
Activated ERK2 activity was determined in an IMAP-FP assay (Molecular Devices).

phosphorylated active hERK2 enzyme, sequence (P28482 whole entry): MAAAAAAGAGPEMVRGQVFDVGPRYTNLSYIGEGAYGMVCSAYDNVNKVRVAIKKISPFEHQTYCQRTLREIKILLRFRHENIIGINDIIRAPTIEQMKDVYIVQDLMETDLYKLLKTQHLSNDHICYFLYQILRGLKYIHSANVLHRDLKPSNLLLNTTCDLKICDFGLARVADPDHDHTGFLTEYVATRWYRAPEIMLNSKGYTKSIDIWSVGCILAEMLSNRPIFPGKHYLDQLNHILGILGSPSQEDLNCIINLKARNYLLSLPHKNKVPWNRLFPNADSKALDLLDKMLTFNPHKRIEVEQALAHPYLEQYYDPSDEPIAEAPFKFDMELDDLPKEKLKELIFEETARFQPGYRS

SMILES	IC50 [nM]
Cc1cc(-c2n[nH]c3cc4c(cc23)CCC(=O)N4O)ccn1 [Example 8, 8-hydroxy-3-(2-methylpyridin-4-yl)-5,6-dihydro-1H-pyrazolo[4,3-g]quinolin-7(8H)-one]	3.6
C[C@H](c1ccccc1)n1c(=O)[nH]c2cc3[nH]nc(N)c3cc2c1=O [Example 44, (R)-3-amino-6-(1-phenylethyl)-1H-pyrazolo[4,3-g]quinazoline-5,7(6H,8H)-dione]	45
C[C@H](c1ccccc1)N1Cc2cc3cn[nH]c3cc2NC1=O [Example 31, (R)-6-(1-phenylethyl)-5,6-dihydro-1H-pyrazolo[4,3-g]quinazolin-7(8H)-one]	55
C[C@H](c1ccccc1)N1Cc2cc3c(-c4ccc5nnn(C)c5c4)n[nH]c3cc2NC1=O [Example 26, (R)-3-(1-methyl-1H-benzo[d][1,2,3]triazol-6-yl)-6-(1-phenylethyl)-5,6-dihydro-1H-pyrazolo[4,3-g]quinazolin-7(8H)-one]	0.3

Now from value to compound:

IC50 [nM]	SMILES
21	C[C@H](c1ccccc1)N1Cc2cc3c(N)n[nH]c3cc2NC1=O [Example 32, (R)-3-amino-6-(1-phenylethyl)-5,6-dihydro-1H-pyrazolo[4,3-g]quinazolin-7(8H)-one]
25	C[C@H](c1ccccc1)N1Cc2cc3c(N[C@@H](C)C(F)(F)F)n[nH]c3cc2NC1=O [Example 30, 6-((R)-1-phenylethyl)-3-(((S)-1,1,1-trifluoropropan-2-yl)amino)-5,6-dihydro-1H-pyrazolo[4,3-g]quinazolin-7(8H)-one]
22	CCNc1n[nH]c2cc3c(cc12)CN([C@H](C)c1ccccc1)C(=O)N3 [Example 29, (R)-3-(ethylamino)-6-(1-phenylethyl)-5,6-dihydro-1H-pyrazolo[4,3-g]quinazolin-7(8H)-one]
5.2	COC(=O)Nc1n[nH]c2cc3c(cc12)CN([C@H](C)c1ccccc1)C(=O)N3 [Example 33, (R)-methyl(7-oxo-6-(1-phenylethyl)-5,6,7,8-tetrahydro-1H-pyrazolo[4,3-g]quinazolin-3-yl)carbamate]

From patent publication US9745307B2, “Compounds that are ERK inhibitors” (Merck Sharp & Dohme Corp., priority 2013, dated 2017)
